# Values quoted from earlier work, collected in patent US8946148B2 (Ambrx, Inc., priority 2007, dated 2015).
# Test system: patients with NIDDM and impaired glucose tolerance
structure (smiles),measurement,value
Cc1c(C)c2c(c(C)c1O)CCC(C)(COc1ccc(CC3SC(=O)NC3=O)cc1)O2 (stereo not shown) [Troglitazone],effect on insulin resistance,reverse insulin resistance
